Assays:
Type in all cases: in vivo
[1] = system: green rice leaf hopper (Nephotettix cincticeps); assay: Nephotettix test; settings: active compound concentration of 1000 ppm; after 6 days; rice seedlings dipped
Method: [table] To produce a suitable preparation of active compound, 1 part by weight of active compound is mixed with the stated amounts of solvent and emulsifier, and the concentrate is diluted with emulsifier-containing, water to the desired concentration. Rice seedlings (Oryza sativa) are treated by being dipped into the preparation of active compound of the desired concentrated and are populated with the green rice leaf hopper (Nephotettix cincticeps) while the leaves are still moist. After the desired period of time, the kill in % is determined. 100% means that all leaf hoppers have been killed; 0% means that none of the leaf hoppers have been killed.

[2] = system: greenhouse red spider mite (Tetranychus urticae); assay: Tetranychus test (OP-resistant/dip treatment); settings: active compound concentration of 1000 ppm; after 7 days; infested bean plants dipped
Method: [table] To produce a suitable preparation of active compound, 1 part by weight of active compound is mixed with the stated amounts of solvent and emulsifier, and the concentrate is diluted with emulsifier-containing water to the desired concentration. Bean plants (Phaseolus vulgaris) which are heavily infested by all stages of the greenhouse red spider mite (Tetranychus urticae) are dipped into a preparation of active compound of the desired concentration. After the desired period of time, the effect in % is determined. 100% means that all spider mites have been killed; 0% means that none of the spider mites have been killed.

[3] = system: larvae of the mustard beetle (Phaedon cochleariae); assay: Phaedon larvae test; settings: active compound concentration of 1000 ppm; after 7 days; cabbage leaves dipped
Method: (§1) [table] To produce a suitable preparation of active compound, 1 part by weight of active compound is mixed with the stated amounts of solvent and emulsifier, and the concentrate is diluted with emulsifier-containing water to the desired concentration. Cabbage leaves (Brassica oleracea) are treated by being dipped into the preparation of active compound of the desired concentration and are populated with larvae of the mustard beetle (Phaedon cochleariae) while the leaves are still moist. After the desired period of time, the kill in % is determined. 100% means that all beetle larvae have been killed; 0% means that none of the beetle larvae have been killed.

[4] = system: Setaria; assay: Pre-emergence test; settings: 125 g ai/ha, after three weeks
Method: (§2) [table] To produce a suitable preparation of active compound, 1 part by weight of active compound is mixed with the stated amount of solvent, the stated amount emulsifier is added and the concentrate is diluted with water to the desired concentration. Seeds of the test plants are sown in normal soil. After about 24 hours, the soil is sprayed with the preparation of active compound such that the particular amounts of active compound desired are applied per unit area. The concentration of the spray liquor is chosen such that the particular amounts of active compound desired are applied in 1000 l of water/ha. After three weeks, the degree of damage to the plants is rated in % damage in comparison to the development of the untreated controls. The figures denote: [table]

[5] = system: Avena fatua; assay: Pre-emergence test; settings: after three weeks
Method: as §2

[6] = system: Lolium; assay: Pre-emergence test; settings: 125 g ai/ha, after three weeks
Method: as §2

[7] = system: Digitaria; assay: Pre-emergence test; settings: 125 g ai/ha, after three weeks
Method: as §2

[8] = system: Alopecurus; assay: Pre-emergence test; settings: after three weeks
Method: as §2

[9] = system: Echinochloa; assay: Pre-emergence test; settings: after three weeks
Method: as §2

[10] = system: Setaria; assay: Post-emergence test; settings: after three weeks
Method: (§3) [table] To produce a suitable preparation of active compound, 1 part by weight of active compound is mixed with the stated amount of solvent, the stated amount of emulsifier is added and the concentrate is diluted with water to the desired concentration. Test plants of a height of 5-15 cm are sprayed with the preparation of active compound such that the particular amounts of active compound desired are applied per unit area. The concentration of the spray liquor is chosen such that the particular amount of active compound desired is applied in 1000 l of water/ha. After three weeks, the degree of damage to the plants is rated in % damage in comparison to the development of the untreated control. The figures denote: [table]

[11] = system: Lolium; assay: Post-emergence test; settings: 125 g ai/ha, after three weeks
Method: as §3

[12] = system: Digitaria; assay: Post-emergence test; settings: after three weeks
Method: as §3

[13] = system: Galium; assay: Post-emergence test; settings: 125 g ai/ha, after three weeks
Method: as §3

[14] = system: peach aphids (Myzus persicae); assay: Myzus test; settings: active compound concentration of 1000 ppm; after 6 days; infested cabbage leaves dipped
Method: as §1, with “oleracea) which are heavily infested by the peach aphids (Myzus persicae)” for “oleracea)”, “concentration.” for “concentration and are populated with larvae of the mustard beetle (Phaedon cochleariae) while the leaves are still moist.”, “aphids” for “beetle larvae”

[15] = system: Sorghum; assay: Post-emergence test; settings: 125 g ai/ha, after three weeks
Method: as §3

[16] = system: Sugar beet; assay: Pre-emergence test; settings: 125 g ai/ha, after three weeks
Method: as §2

[17] = system: Veronica; assay: Pre-emergence test; settings: 125 g ai/ha, after three weeks
Method: as §2

[18] = system: Soya bean; assay: Pre-emergence test; settings: 125 g ai/ha, after three weeks
Method: as §2

[19] = system: Avena fatua; assay: Post-emergence test; settings: 15 g ai/ha, after three weeks
Method: as §3

[20] = system: Cotton; assay: Post-emergence test; settings: after three weeks
Method: as §3

[21] = system: Sugar beet; assay: Post-emergence test; settings: 15 g ai/ha, after three weeks
Method: as §3

[22] = system: Alopecurus; assay: Post-emergence test; settings: 15 g ai/ha, after three weeks
Method: as §3

[23] = system: white fly Bemisia tabaci; assay: Bemisia test; settings: active compound concentration of 1000 ppm; after 10 days; infested cotton plants dipped
Method: [table] To produce a suitable preparation of active compound, 1 part by weight of active compound is mixed with the stated amounts of solvent and emulsifier, and the concentrate is diluted with emulsifier-containing water to the desired concentrations. Cotton plants (Gossypium hirsutum) which are infested by eggs, larvae and pupae of the white fly Bemisia tabaci are dipped into a preparation of active compound of the desired concentration. After the desired period of time, the kill in % is determined. 100% means that all animals have been killed; 0% means that none of the animals have been killed.

[24] = system: Soya bean; assay: Post-emergence test; settings: 125 g ai/ha, after three weeks
Method: as §3

[25] = system: Wheat; assay: Post-emergence test; settings: 125 g ai/ha, after three weeks
Method: as §3

CCc1cc(C)c(C2=C(O)C(C)(C)NC2=O)c(CC)c1 [Example I-1-a-1]
kill in % [1]: 100%

CCc1cc(C)c(C2=C(O)C3(CCC(OC)CC3)NC2=O)c(CC)c1 (centres unmarked) [Example I-1-a-3]
kill in % [2]: 100% | kill in % [1]: 100% | kill in % [3]: 100% | % damage Setaria [4]: 100% | % damage Avena fatua ([5]; 125 g ai/ha): 95% | % damage Lolium [6]: 100% | % damage Digitaria [7]: 100% | % damage Alopecurus ([8]; 125 g ai/ha): 100% | % damage Echinochloa ([9]; 125 g ai/ha): 100% | % damage Setaria ([10]; 125 g ai/ha): 90% | % damage Lolium [11]: 70% | % damage Digitaria ([12]; 125 g ai/ha): 80% | % damage Galium [13]: 80%

CCc1cc(CC)c(C2=C(O)C3(CCC(OC)CC3)NC2=O)c(CC)c1 (centres unmarked) [Example I-1-a-6]
kill in % [14]: 100% | % damage Avena fatua ([5]; 60 g ai/ha): 80% | % damage Alopecurus ([8]; 60 g ai/ha): 90% | % damage Echinochloa ([9]; 60 g ai/ha): 90% | % damage Setaria ([10]; 125 g ai/ha): 95% | % damage Lolium [11]: 80% | % damage Digitaria ([12]; 125 g ai/ha): 95% | % damage Sorghum [15]: 100%

CCc1cc(C)cc(C)c1C1=C(O)C2(CCC(C)CC2)NC1=O (centres unmarked) [Example I-1-a-9]
kill in % [1]: 100% | % damage Setaria [4]: 100% | % damage Lolium [6]: 100% | % damage Sugar beet [16]: 0% | % damage Veronica [17]: 90% | % damage Digitaria [7]: 100% | % damage Alopecurus ([8]; 125 g ai/ha): 100% | % damage Soya bean [18]: 0% | % damage Setaria ([10]; 15 g ai/ha): 100% | % damage Avena fatua [19]: 95% | % damage Cotton ([20]; 15 g ai/ha): 0% | % damage Sugar beet [21]: 10% | % damage Digitaria ([12]; 15 g ai/ha): 95% | % damage Alopecurus [22]: 100%

C=Cc1cc(C)c(C2=C(OC(=O)C(C)(C)C)C3(CCCCC3)OC2=O)c(C)c1 [Example I-2-b-2]
kill in % [2]: 100%

C=Cc1cc(C)c(C2=C(OC(=O)C(C)(C)C)C3(CCC(OC)CC3)OC2=O)c(C)c1 (centres unmarked) [Example I-2-b-5]
kill in % [14]: 100%

C=Cc1cc(C)c(C2=C(OC(=O)C(C)(C)C)C3(CCC(C)CC3)OC2=O)c(C)c1 (centres unmarked) [Example I-2-b-6]
kill in % [3]: 100% | kill in % [14]: 100%

C=Cc1cc(C)cc(C)c1C1=C(OC(=O)C(C)(C)C)C2(CCC(OC)CC2)OC1=O (centres unmarked) [Example I-2-b-8]
kill in % [2]: 100% | kill in % [3]: 100%

CCc1cc(C)cc(C)c1C1=C(OC(=O)C(C)(C)C)C2(CCCCC2)OC1=O [Example I-2-b-9]
kill in % [1]: 100% | kill in % [23]: 100%

CCc1cc(CC)c(C2=C(OC(=O)C(C)CC)C3(CCC(OC)CC3)OC2=O)c(CC)c1 (centres unmarked) [Example I-2-b-11]
kill in % [2]: 100%

C=Cc1cc(C)c(C2=C(OC(=O)C(C)CC)C3(CCC(OC)CC3)OC2=O)cc1C (centres unmarked) [Example I-2-b-12]
% damage Setaria ([10]; 125 g ai/ha): 95% | % damage Lolium [11]: 90% | % damage Cotton ([20]; 125 g ai/ha): 0% | % damage Digitaria ([12]; 125 g ai/ha): 95% | % damage Soya bean [24]: 0%

C=Cc1cc(C)c(C)cc1C1=C(OC(=O)C(C)C)C2(CCC(OC)CC2)OC1=O (centres unmarked) [Example I-2-b-13]
% damage Setaria ([10]; 125 g ai/ha): 95% | % damage Lolium [11]: 70% | % damage Cotton ([20]; 125 g ai/ha): 0% | % damage Digitaria ([12]; 125 g ai/ha): 80% | % damage Soya bean [24]: 0% | % damage Wheat [25]: 10%

From US7915282B2, “C2-phenyl-substituted cyclic keto-enols used as pesticides and herbicides” (Bayer Aktiengesellschaft, priority 2000, dated 2011)
